Results reported in paper PMC12037426, “Lipid Metabolism-Related Enzyme Inhibition and Antioxidant Potential of the Extracts and Phytochemical Compounds from Trachystemon orientalis (L.) D.Don” (Plant Foods for Human Nutrition (Dordrecht, Netherlands), 2025).
Like-named read-outs stand apart in the source and are kept apart here.

Legend:
PL = conditions: cited from earlier work
[1] = design: method as in PMID 28122265; conditions: cited from earlier work
[2] = test system: RAW264.7 macrophage cells; design: method as in PMID 27514857; conditions: cited from earlier work
[3] = test system: hypercholesterolemic rats; design: method as in PMID 39615784; conditions: 100 mg/kg, hypercholesterolemic rats on a high-fat diet; cited from earlier work
[4] = Cupric-reducing antioxidant capacity (CUPRAC) assay
Procedure: CUPRAC assay was performed according to the modified protocol. Methanolic solutions of Trolox, utilized as a reference, were produced at varying concentrations (1000-62.5 μM). Subsequently, 1 mL of NH4CH3COO and 1 mL of CuCl2.2H2O and 1 of mL neocuproine (Nc) solutions were combined, followed by the addition of 0.5 mL of the sample solution (10 mg/mL) and 0.6 mL of distilled water (1.1-x) water into the mixture. Following the mixing of the tubes and incubation in darkness at ambient temperature for 30 minutes, the absorbance of the samples was measured at 450 nm. The antioxidant capacity of the samples was quantified as TEAC (μM) by comparison with Trolox, the reference chemical.

Pancreatic lipase (PL) = target: T1, Pancreatic lipase (PL) (Homo sapiens, UniProt P16233); assay: Pancreatic lipase (PL) inhibition, p-nitrophenyl butyrate substrate; type: biochemical; conditions: for IC50: mean ± SD of triplicate, read-out: Enzyme inhibitory activities IC50 ± SD, Pancreatic lipase (PL) (converted)
T1 sequence (P16233 17-465): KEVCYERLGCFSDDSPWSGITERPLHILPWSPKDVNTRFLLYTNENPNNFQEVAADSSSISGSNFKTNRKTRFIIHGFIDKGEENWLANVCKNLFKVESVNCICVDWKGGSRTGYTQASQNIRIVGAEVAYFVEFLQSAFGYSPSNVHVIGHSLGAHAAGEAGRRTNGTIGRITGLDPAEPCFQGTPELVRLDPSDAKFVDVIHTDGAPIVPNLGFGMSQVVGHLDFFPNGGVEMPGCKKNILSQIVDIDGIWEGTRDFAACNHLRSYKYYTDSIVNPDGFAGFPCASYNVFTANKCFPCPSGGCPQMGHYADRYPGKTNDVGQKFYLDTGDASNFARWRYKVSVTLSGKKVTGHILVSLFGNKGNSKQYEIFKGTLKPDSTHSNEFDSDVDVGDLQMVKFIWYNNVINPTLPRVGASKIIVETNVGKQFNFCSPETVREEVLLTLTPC
Procedure: PL inhibition was assessed utilizing p-nitrophenyl butyrate as a substrate. The extracts were diluted using a buffer solution (0.1 M Tris-HCl, pH 8.0) to achieve a final concentration range of 12.5-400 µg/mL. […] An enzyme solution (EC 3.1.1.3, 200 units/mL) and a substrate solution (10 mM) were formulated in a buffer solution.
The experimental procedure was structured in microplate wells A (90 µL enzyme solution, 5 µL substrate solution, 5 µL buffer solution), B (90 µL enzyme solution, 10 µL buffer solution), C (90 µL enzyme solution, 5 µL sample solution, 5 µL substrate solution), and D (90 µL enzyme solution, 5 µL sample solution, 5 µL buffer solution). Microplates were incubated at 37 °C for 15 minutes before to and following the addition of substrates. The absorbance values were measured at 405 nm, and the percentage of pancreatic lipase enzyme inhibition was calculated. All concentrations were conducted in triplicate.
% Pancreatic lipase inhibition = [(A-B)-(C-D)/(A-B)] × 100
The IC50 values of the samples on lipase were derived using the graph equation established by plotting the observed percentage of enzyme inhibition against the logarithm of the concentrations (ordinate and abscissa).

[5] = Ferric reducing antioxidant power (FRAP) assay
Procedure: The Fe(II)-TPTZ complex, generated by the reduction of the TPTZ complex in the presence of antioxidants, has a blue colour and is measured at 595 nm. […] Absorbance measurements were recorded at 595 nm after 20 minutes at room temperature. […] FRAP values were reported as μM Trolox equivalents per gram of material.

3T3-L1 adipocytes = conditions: cited from earlier work
[6] = test system: hypercholesterolemic hamsters; conditions: cited from earlier work

Row | Structure (SMILES) | PL IC50 (PL) [µg/mL] | radical scavenging ability [1] | lipid accumulation [2] | cholesterol and triglyceride levels [3] | CUPRAC [4] [µM TEAC] | CUPRAC (copper reducing antioxidant power) ([4]; sample 10 mg/mL) [µM Trolox equivalent/gram] | IC50 (Pancreatic lipase (PL)) [µM] | PL inhibitory activity IC50 (PL) [µg/mL] | lipase inhibitory activity IC50 (PL) [µg/mL] | IC50 (PL; read-out: lipase inhibitory activity IC50) [µM] | FRAP [5] [µM TEAC] | FRAP (iron reducing antioxidant power) ([5]; sample 10 mg/mL) [µM Trolox equivalent/gram] | adipogenesis (intracellular triglyceride content and lipid accumulation) (3T3-L1 adipocytes) | cytotoxicity (3T3-L1 adipocytes) | inhibition at 100 µg/mL (Pancreatic lipase (PL); read-out: PL inhibition) [%] | PL inhibition (PL; 100 µg/mL) [%] | PL inhibition (PL; 4 mg/mL) | PL inhibition (PL; first value of two) [%] | PL inhibition (PL; second value of two) [%] | cholesterol absorption and plasma cholesterol levels [6]
1 | O=C(O)C(O)Cc1ccc(O)c(O)c1 (stereo not shown) [Danshensu, 3,4-dihydroxyphenyl lactic acid] | 65.160 ± 4.443 | equivalent to that of quercetin | reduce lipid accumulation | – | – | – | – | – | – | – | – | – | – | – | – | – | – | – | – | –
2 | O=C(/C=C/c1ccc(O)c(O)c1)O[C@H](Cc1ccc(O)c(O)c1)C(=O)O [Rosmarinic acid] | – | equivalent to that of quercetin | – | improve cholesterol and triglyceride levels comparably to simvastatin | 1801.389 ± 5.500 | 1801.389 ± 5.500 | 134 | 125.2 | 49.421 ± 1.448 | 62.8 ± 2.7 | 1274.400 ± 1.633 | 1274.400 ± 1.633 | – | – | – | – | – | – | – | –
3 | CC[C@H](CC[C@@H](C)[C@H]1CC[C@H]2[C@@H]3CC=C4C[C@@H](O)CC[C@]4(C)[C@H]3CC[C@]12C)C(C)C [β-sitosterol] | – | – | – | – | – | – | 101 | – | – | – | – | – | efficiently prevented adipogenesis | without including notable cytotoxicity | 68.5 | 79.1 ± 11.3 | 60.67% ± 0.53 | 2.99 ± 0.80 | 8.80 ± 4.15 | decrease cholesterol absorption and plasma cholesterol levels
